From ChEMBL document CHEMBL3108715, “Pan-histone demethylase inhibitors simultaneously targeting Jumonji C and lysine-specific demethylases display high anticancer activities” (J Med Chem, 2014) come the findings set out here.

In assay [1] the target is T1, Lysine-specific demethylase 2A (Homo sapiens, UniProt Q9Y2K7).
T1 sequence (Q9Y2K7 whole entry): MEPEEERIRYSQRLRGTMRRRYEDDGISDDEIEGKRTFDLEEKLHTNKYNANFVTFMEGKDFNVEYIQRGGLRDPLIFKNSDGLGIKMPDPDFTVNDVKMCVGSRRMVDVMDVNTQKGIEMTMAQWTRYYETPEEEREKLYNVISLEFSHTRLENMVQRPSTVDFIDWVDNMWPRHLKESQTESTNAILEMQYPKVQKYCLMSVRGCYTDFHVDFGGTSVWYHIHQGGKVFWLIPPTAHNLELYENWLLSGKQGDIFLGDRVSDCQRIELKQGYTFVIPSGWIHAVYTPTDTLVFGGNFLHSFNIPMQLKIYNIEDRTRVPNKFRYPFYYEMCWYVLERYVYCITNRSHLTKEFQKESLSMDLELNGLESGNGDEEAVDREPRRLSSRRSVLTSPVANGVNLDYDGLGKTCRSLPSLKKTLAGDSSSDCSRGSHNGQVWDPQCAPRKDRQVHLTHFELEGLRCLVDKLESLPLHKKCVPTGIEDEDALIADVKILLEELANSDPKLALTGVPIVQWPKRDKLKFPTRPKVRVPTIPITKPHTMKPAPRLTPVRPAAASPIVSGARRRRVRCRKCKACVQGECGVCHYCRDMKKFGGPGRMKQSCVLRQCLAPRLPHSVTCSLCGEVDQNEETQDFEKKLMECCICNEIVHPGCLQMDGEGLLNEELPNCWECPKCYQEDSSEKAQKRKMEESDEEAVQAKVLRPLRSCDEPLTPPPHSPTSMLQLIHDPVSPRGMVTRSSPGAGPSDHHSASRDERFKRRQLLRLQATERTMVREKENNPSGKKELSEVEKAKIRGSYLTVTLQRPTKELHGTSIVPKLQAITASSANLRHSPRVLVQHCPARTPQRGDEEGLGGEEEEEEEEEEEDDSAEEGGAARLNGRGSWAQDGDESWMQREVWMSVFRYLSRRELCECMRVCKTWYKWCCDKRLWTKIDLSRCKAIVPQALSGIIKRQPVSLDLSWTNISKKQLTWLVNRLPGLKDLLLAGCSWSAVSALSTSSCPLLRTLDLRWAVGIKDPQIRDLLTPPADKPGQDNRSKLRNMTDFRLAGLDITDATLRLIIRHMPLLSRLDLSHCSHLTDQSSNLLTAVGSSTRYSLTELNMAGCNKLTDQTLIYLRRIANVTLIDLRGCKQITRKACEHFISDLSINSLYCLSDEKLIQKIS
Description: Inhibition of recombinant FBXL11 (unknown origin) incubated for 15 mins prior to substrate addition by AlphaScreen method

Assay [2] has as its target T2, Lysine-specific demethylase 4E (Homo sapiens, UniProt B2RXH2).
T2 sequence (B2RXH2 whole entry): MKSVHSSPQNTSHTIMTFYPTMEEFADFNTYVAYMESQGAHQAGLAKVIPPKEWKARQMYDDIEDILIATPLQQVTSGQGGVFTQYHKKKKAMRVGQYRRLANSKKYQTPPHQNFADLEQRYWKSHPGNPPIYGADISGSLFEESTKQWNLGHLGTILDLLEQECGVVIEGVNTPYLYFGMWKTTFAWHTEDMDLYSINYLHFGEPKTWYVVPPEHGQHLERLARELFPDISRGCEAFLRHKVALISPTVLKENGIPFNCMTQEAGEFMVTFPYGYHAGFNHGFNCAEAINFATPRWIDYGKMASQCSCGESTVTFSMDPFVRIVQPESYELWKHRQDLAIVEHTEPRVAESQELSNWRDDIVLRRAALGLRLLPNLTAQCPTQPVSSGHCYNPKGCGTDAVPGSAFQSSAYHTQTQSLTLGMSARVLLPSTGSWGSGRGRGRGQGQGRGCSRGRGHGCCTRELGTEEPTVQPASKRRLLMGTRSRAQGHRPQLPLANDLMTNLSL
Description: Inhibition of recombinant JMJD2E (unknown origin) incubated for 15 mins prior to substrate addition by AlphaScreen method

The subject of assay [3] is LNCaP. As to the kind of experiment: Inhibition of LSD1/JmjC in human LNCAP cells assessed as increase in H3K4me2/3 level at 50 uM by Western blotting analysis. It counts as cell-based. (A western blot detects proteins with antibodies after separation by electrophoresis.)
Assay [4] has as its system HCT-116. As to the kind of experiment: Cytotoxicity against human HCT116 cells at 50 uM after 6 hrs. It counts as functional, cell-based.
For assay [5], the system named is LNCaP. As to the kind of experiment: Cell cycle arrest in human LNCAP cells assessed as accumulation at pre-G1 phase at 50 uM after 30 hrs by propidium iodide staining-based FACS analysis. The assay is classed as functional. For orientation: In flow cytometry, cells or beads pass a laser one at a time.
The test system of assay [6] is LNCaP. As to the kind of experiment: Cell cycle arrest in human LNCAP cells assessed as accumulation at G1 phase at 50 uM after 30 hrs by propidium iodide staining-based FACS analysis. It counts as functional.
The target in assay [7] is T3, Amine oxidase [flavin-containing] B (Homo sapiens, UniProt P27338).
T3 sequence (P27338 whole entry): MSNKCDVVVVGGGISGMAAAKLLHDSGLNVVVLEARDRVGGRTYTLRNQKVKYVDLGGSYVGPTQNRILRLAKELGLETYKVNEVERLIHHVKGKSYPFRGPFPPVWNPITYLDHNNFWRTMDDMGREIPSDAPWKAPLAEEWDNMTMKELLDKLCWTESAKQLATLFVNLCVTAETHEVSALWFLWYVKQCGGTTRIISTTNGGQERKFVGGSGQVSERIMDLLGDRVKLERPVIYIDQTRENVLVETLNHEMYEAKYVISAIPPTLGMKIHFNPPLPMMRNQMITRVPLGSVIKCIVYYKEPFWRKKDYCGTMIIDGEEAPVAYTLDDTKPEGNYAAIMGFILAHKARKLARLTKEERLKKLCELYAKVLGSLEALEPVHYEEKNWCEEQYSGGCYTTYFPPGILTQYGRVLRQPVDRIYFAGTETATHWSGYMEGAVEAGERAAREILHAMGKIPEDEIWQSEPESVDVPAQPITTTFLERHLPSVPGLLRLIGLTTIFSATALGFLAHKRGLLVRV
Description: Inhibition of human recombinant MAO-B expressed in Pichia pastoris using benzylamine as substrate after 5 mins

The target of assay [8] is T4, Amine oxidase [flavin-containing] A (Homo sapiens, UniProt P21397).
T4 sequence (P21397 whole entry): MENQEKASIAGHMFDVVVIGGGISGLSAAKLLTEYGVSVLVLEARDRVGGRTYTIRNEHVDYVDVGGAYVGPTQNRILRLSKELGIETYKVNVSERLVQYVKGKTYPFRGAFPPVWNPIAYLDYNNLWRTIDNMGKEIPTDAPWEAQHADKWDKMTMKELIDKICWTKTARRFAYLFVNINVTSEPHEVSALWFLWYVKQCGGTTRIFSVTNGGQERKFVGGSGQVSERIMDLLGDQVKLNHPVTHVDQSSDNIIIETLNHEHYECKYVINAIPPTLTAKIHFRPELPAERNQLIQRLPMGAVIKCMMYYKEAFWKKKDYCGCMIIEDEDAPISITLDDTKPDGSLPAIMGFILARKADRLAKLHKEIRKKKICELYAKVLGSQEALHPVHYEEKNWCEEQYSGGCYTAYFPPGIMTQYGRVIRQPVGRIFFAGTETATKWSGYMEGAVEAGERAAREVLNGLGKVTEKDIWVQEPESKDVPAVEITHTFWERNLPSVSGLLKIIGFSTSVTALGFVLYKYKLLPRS
Description: Inhibition of human recombinant MAO-A expressed in Pichia pastoris using kynuramine as substrate after 5 mins

The structures appear in SMILES notation. Active and inactive are the calls of the source. No cut-off for these calls is given here.

By IC50 is commonly meant the point on the concentration scale where inhibition reaches its midpoint.

Regarding `N[C@H]1C[C@@H]1c1ccc(NC(=O)CCCCNC(=O)c2ccc(O)c3ncccc23)cc1` (relative stereo), the values for the half-maximal inhibitory concentration (IC50) in assay [1] and in assay [2] were 8.2 µM and 3.5 µM, respectively.

With `COC(=O)c1ccnc(-c2cc(C(=O)O)ccn2)c1`, the IC50 in assay [1] came out at 4.8 µM; in assay [2] it was 5 µM.

As to `COC(=O)c1ccnc(-c2cc(C(=O)Nc3ccc([C@@H]4C[C@H]4N)cc3)ccn2)c1.Cl` (relative stereo), in assay [3], the inhibition result was “Active”. The outcome in assay [4] and in assay [5] was Active. The Activity entry in assay [6] is “>=90%”. Moreover, the IC50 was 12.2 µM in assay [1], 43.3 µM in assay [7], less than 1 µM in assay [8] and 16 µM in assay [2].

With `Cl.N[C@H]1C[C@@H]1c1ccc(NC(=O)CCCCCNC(=O)c2ccc(O)c3ncccc23)cc1` (relative stereo), the result in assay [5] was Active. Besides, in assay [6], the Activity result was “>=90%”. The IC50 in assay [1] was determined as 12 µM; in assay [2], 5.1 µM.

As to `N[C@H]1C[C@@H]1c1ccc(NC(=O)CCCNC(=O)c2ccc(O)c3ncccc23)cc1` (relative stereo), the IC50 turned out to be 12 µM in assay [1] and 5.5 µM in assay [2].

In the case of `Cl.N[C@@H]1C[C@H]1c1ccc(NC(=O)c2ccc(O)c3ncccc23)cc1` (relative stereo), in assay [3], the inhibition entry is “Active”. For the same compound, the result in assay [4] and in assay [5] was Active. In addition, the Activity entry in assay [6] is given as “>=90%”. For the same compound, the concentration for half-maximal inhibition (IC50) in assay [1] is 7.8 µM; in assay [7], 81 µM; in assay [8], 8.9 µM; in assay [2] it was 3.9 µM.

With `N[C@@H]1C[C@H]1c1ccc(NC(=O)c2ccnc(-c3cc(C(=O)O)ccn3)c2)cc1` (relative stereo), the IC50 in assay [1] turned out to be 0.22 µM; in assay [7] it was 47 µM; in assay [8], 35.4 µM; in assay [2], 0.42 µM.
